From patent publication US20050272784A1 (priority 2004, published 2005)

The molecules below were run on type III protein secretion system of P. aeruginosa PA103 (ExoU secretion) (assay: Tertiary assay: Type III-dependent secretion of ExoU by P. aeruginosa PA103). Details: Pseudomonas aeruginosa, ExoU Conc 100 μM, read-out: ExoU % Inh.
Type: cell-based
Description: Tertiary assay: inhibition of Type III protein secretion of effectors from a Pseudomonas aeruginosa system. Type III protein secretion is used by P. aeruginosa to secrete several essential virulence determinants. One effector of the type III protein secretion system of P. aeruginosa PA103 is the virulence determinants ExoU.
The amount of Type III-dependent secretion of ExoU by P. aeruginosa PA103 can be determined in a cell-based assay by quantification of the 73.9 kDa ExoU protein scereted into the extracellular medium. Such quantitation can be achieved by growing strain PA103 in a deferrated medium in the presence of nitrilotriacetic acid (an inducer of Type III protein secretion in P. aeruginosa) and either in the presence or absence of putative inhibitors. After a prolonged growth period, the cells are sedimented and the supernatants concentrated by ammonium sulfate precipitation. The proteins in the resuspended pellets are separated by electrophoresis on SDS-polyacrylamide gels. After staining gels with Colloidal Blue™, the 73.9 kDa ExoU band is quantitated by scanning through an imager. The effects of inhibitors on the intensity of the ExoU band may be measured relative to that of untreated controls.

Point of comparison: `O=C(NC(Cc1ccc(Cl)cc1)C(=O)O)c1nc(-c2ccc(-c3ccccc3)cc2)oc1-c1cccc(C(F)(F)F)c1` (stereo not shown) [Compound 60, 2-{[2-Biphenyl-4-yl-5-(3-trifluoromethylphenyl)oxazole-4-carbonyl]amino}-3-(4-chlorophenyl)propionic acid], inhibition at 100 µM 90.2%. Against it:
- O=C(NC(Cc1ccc(Cl)cc1)C(=O)O)c1nc(-c2ccc(C(F)(F)F)cc2)oc1-c1ccc(-c2ccccc2)cc1 (stereo not shown) [Compound 59, 2-{[5-Biphenyl-4-yl-2-(4-trifluoromethylphenyl)oxazole-4-carbonyl]amino}-3-(4-chlorophenyl)propionic acid] — lower, 84.1%

Same assay, conditions: Pseudomonas aeruginosa, ExoU secreted into extracellular medium

Point of comparison: `O=C(NC(Cc1ccc(Cl)cc1)C(=O)O)c1nc(-c2ccc(-c3ccccc3)cc2)oc1-c1cccc(C(F)(F)F)c1` (stereo not shown) [Compound 15, 2-{[2-Biphenyl-4-yl-5-(3-trifluoromethylphenyl)oxazole-4-carbonyl]amino}-3-(4-chlorophenyl)propionic acid], IC50 79.9 µM. Against it:
- O=C(NC(Cc1ccc(Cl)cc1)C(=O)O)c1nc(-c2ccc(C(F)(F)F)cc2)oc1-c1cc2ccccc2o1 (stereo not shown) [Compound 42, 2-{[5-Benzofuran-2-yl-2-(4-trifluoromethylphenyl)oxazole-4-carbonyl]amino}-3-(4-chlorophenyl)propionic acid] — 2.9-fold lower, 27.1 µM
- O=C(N[C@H](COCc1ccccc1)C(=O)O)c1nc(-c2ccc(C(F)(F)F)cc2)oc1-c1ccc(-c2ccccc2)cc1 [Compound 72, (R)-3-Benzyloxy-2-{[5-biphenyl-4-yl-2-(4-trifluoromethylphenyl)oxazole-4-carbonyl]amino}propionic acid] — within 1.5-fold, 54.8 µM
- O=C(NC(Cc1ccc(Cl)cc1)C(=O)O)c1[nH]c(-c2ccc(-c3ccccc3)cc2)nc1-c1cccc(C(F)(F)F)c1 (stereo not shown) [Compound 3, 2-{[2-Biphenyl-4-yl-5-(3-trifluoromethylphenyl)-3H-imidazole-4-carbonyl]amino}-3-(4-chlorophenyl)propionic acid] — 3.9-fold lower, 20.6 µM
- O=C(N[C@@H](CSCc1ccccc1)C(=O)O)c1nc(-c2cccc3ccccc23)oc1-c1ccc(C(F)(F)F)nc1 [Compound 65, (R)-3-Benzylsulfanyl-2-{[2-naphthalen-1-yl-5-(6-trifluoromethylpyridin-3-yl)oxazole-4-carbonyl]amino}propionic acid] — 1.5-fold lower, 53.1 µM
- O=C(N[C@@H](CSCc1ccccc1)C(=O)O)c1nc(-c2ccc(C(F)(F)F)cc2)oc1-c1cc2ccccc2s1 [Compound 23, (R)-2-{[5-Benzo[b]thien-2-yl-2-(4-trifluoromethylphenyl)oxazole-4-carbonyl]amino}-3-benzylsulfanylpropionic acid] — 2-fold lower, 40.7 µM
- O=C(N[C@@H](COCc1ccccc1)C(=O)O)c1nc(-c2ccc(Oc3ccccc3)cc2)oc1-c1ccc(Cl)c(Cl)c1 [Compound 13, (S)-3-Benzyloxy-2-{[5-(3,4-dichlorophenyl)-2-(4-phenoxyphenyl)-oxazole-4-carbonyl]amino}propionic acid] — 4.1-fold lower, 19.3 µM
- O=C(N[C@H](Cc1ccc(Cl)cc1)C(=O)O)c1nc(-c2ccc(-c3ccccc3)cc2)nn1-c1cccc(C(F)(F)F)c1 [Compound 4, (R)-2-{[5-Biphenyl-4-yl-2-(3-trifluoromethylphenyl)-2H-[1,2,4]triazole-3-carbonyl]amino}-3-(4-chlorophenyl)propionic acid] — within 1.5-fold, 56.6 µM
- O=C(N[C@@H](COCc1ccccc1)C(=O)O)c1nc(-c2ccc(C(F)(F)F)cc2)oc1-c1ccc(-c2ccccc2)cc1 [Compound 63, (S)-3-Benzyloxy-2-{[5-biphenyl-4-yl-2-(4-trifluoromethylphenyl)oxazole-4-carbonyl]amino}propionic acid] — 2.1-fold lower, 37.3 µM
- O=C(N[C@@H](CSCc1ccccc1)C(=O)O)c1nc(-c2ccc(Oc3ccccc3)cc2)oc1-c1ccc(Cl)c(Cl)c1 [Compound 8, (R)-3-Benzylsulfanyl-2-{[5-(3,4-dichlorophenyl)-2-(4-phenoxyphenyl)oxazole-4-carbonyl]amino}propionic acid] — 1.8-fold lower, 45.4 µM
- O=C(N[C@@H](COCc1ccccc1)C(=O)O)c1nc(-c2ccc(C(F)(F)F)cc2)oc1-c1cc2ccccc2o1 [Compound 35, (S)-2-{[5-Benzofuran-2-yl-2-(4-trifluoromethylphenyl)oxazole-4-carbonyl]amino}-3-benzyloxypropionic acid] — within 1.5-fold, 79.8 µM
- O=C(N[C@H](COCc1ccccc1)C(=O)O)c1nc(-c2ccc(-c3ccccc3)cc2)oc1-c1cccc(C(F)(F)F)c1 [Compound 71, (R)-3-Benzyloxy-2-{[2-biphenyl-4-yl-5-(3-trifluoromethylphenyl)oxazole-4-carbonyl]amino}propionic acid] — 1.8-fold lower, 45.3 µM
- O=C(NC(Cc1ccc(Cl)cc1)C(=O)O)c1nc(-c2ccc(-c3ccccc3)cc2)oc1-c1cnc(Cl)c(Cl)c1 (stereo not shown) [Compound 45, 2-{[2-Biphenyl-4-yl-5-(5,6-dichloropyridin-3-yl)oxazole-4-carbonyl]amino}-3-(4-chlorophenyl)propionic acid] — 1.5-fold lower, 51.8 µM
- O=C(N[C@@H](COCc1ccccc1)C(=O)O)c1nc(-c2ccc(Oc3ccccc3)cc2)oc1-c1ccc(Cl)nc1Cl [Compound 37, (S)-3-Benzyloxy-2-{[5-(2,6-dichloropyridin-3-yl)-2-(4-phenoxyphenyl)oxazole-4-carbonyl]amino}propionic acid] — within 1.5-fold, 91.7 µM
- O=C(N[C@@H](CSCc1ccccc1)C(=O)O)c1nc(-c2ccc(C(F)(F)F)cc2)oc1-c1ccc(-c2cccnc2)cc1 [Compound 18, (R)-3-Benzylsulfanyl-2-{[5-(4-pyridin-3-yl-phenyl)-2-(4-trifluoromethylphenyl)-oxazole-4-carbonyl]amino}propionic acid] — within 1.5-fold, 89.1 µM
- Cn1cc(-c2oc(-c3ccc(C(F)(F)F)cc3)nc2C(=O)NC(Cc2ccc(Cl)cc2)C(=O)O)c2ccccc21 (stereo not shown) [Compound 48, 3-(4-Chlorophenyl)-2-{[5-(1-methyl-1H-indol-3-yl)-2-(4-trifluoromethylphenyl)oxazole-4-carbonyl]amino}propionic acid] — within 1.5-fold, 73.5 µM
- O=C(N[C@@H](CSCc1ccccc1)C(=O)O)c1nc(-c2ccc(C(F)(F)F)cc2)oc1C1CCN(c2nccc(C(F)(F)F)n2)CC1 [Compound 57, (R)-3-Benzylsulfanyl-2-({2-(4-trifluoromethylphenyl)-5-[1-(4-trifluoromethylpyrimidin-2-yl)piperidin-4-yl]oxazole-4-carbonyl}amino)propionic acid] — 1.6-fold lower, 50 µM
- O=C(N[C@@H](COCc1ccccc1)C(=O)O)c1nc(-c2ccc(C(F)(F)F)cc2)oc1-c1ccc2ccccc2n1 [Compound 27, (S)-3-Benzyloxy-2-{[5-quinolin-2-yl-2-(4-trifluoromethylphenyl)oxazole-4-carbonyl]amino}propionic acid] — within 1.5-fold, 93.1 µM
- O=C(N[C@@H](CSCc1ccccc1)C(=O)O)c1nc(-c2ccc(C(F)(F)F)cc2)oc1-c1ccc(N2CCCCC2)nc1 [Compound 14, (R)-3-Benzylsulfanyl-2-{[5-(3,4,5,6-tetrahydro-2H-[1,2′]bipyridin-5′-yl)-2-(4-trifluoromethylphenyl)oxazole-4-carbonyl]amino}propionic acid] — within 1.5-fold, 62.8 µM
- O=C(N[C@@H](CSCc1ccccc1)C(=O)O)c1nc(-c2ccc(C(F)(F)F)cc2)oc1-c1ccc(-c2ccncc2)cc1 [Compound 19, (R)-3-Benzylsulfanyl-2-{[5-(4-pyridin-4-yl-phenyl)-2-(4-trifluoromethylphenyl)oxazole-4-carbonyl]amino}propionic acid] — within 1.5-fold, 78.2 µM
- Cc1nc(-c2ccc(-c3oc(-c4ccc(C(F)(F)F)cc4)nc3C(=O)N[C@@H](CSCc3ccccc3)C(=O)O)cc2)no1 [Compound 51, (R)-3-Benzylsulfanyl-2-{[5-[4-(5-methyl[1,2,4]oxadiazol-3-yl)phenyl]-2-(4-trifluoromethylphenyl)oxazole-4-carbonyl]amino}propionic acid] — 4.1-fold lower, 19.5 µM
- O=C(N[C@@H](COCc1ccccc1)C(=O)O)c1nc(-c2ccc(-c3ccsc3)cc2)oc1-c1ccc(Cl)c(Cl)c1 [Compound 52, (S)-3-Benzyloxy-2-{[5-(3,4-dichlorophenyl)-2-(4-thien-3-yl-phenyl)oxazole-4-carbonyl]amino}propionic acid] — within 1.5-fold, 56.4 µM
- O=C(NC(Cc1ccc(Cl)cc1)C(=O)O)c1nc(-c2ccc(-c3ccccc3)cc2)nn1-c1ccc(Cl)c(Cl)c1 (stereo not shown) [Compound 69, 2-{[5-Biphenyl-4-yl-2-(3,4-dichlorophenyl)-2H-[1,2,4]triazole-3-carbonyl]amino}-3-(4-chlorophenyl)propionic acid] — 2.5-fold lower, 32.4 µM
- CN(C(=O)c1nc(-c2ccc(C(F)(F)F)cc2)oc1-c1ccc(-c2ccccc2)cc1)[C@@H](CSCc1ccccc1)C(=O)O [Compound 16] — within 1.5-fold, 80.9 µM
- O=C(N[C@@H](CSCc1ccccc1)C(=O)O)c1nc(-c2ccc(C(F)(F)F)cc2)sc1-c1ccc(OCc2ccccc2)cc1 [Compound 7, (R)-2-{[5-(4-Benzyloxyphenyl)-2-(4-trifluoromethylphenyl)thiazole-4-carbonyl]amino}-3-benzylsulfanylpropionic acid] — within 1.5-fold, 54.4 µM
- N#Cc1ccc(-c2oc(-c3ccc(C(F)(F)F)cc3)nc2C(=O)NC(CSCc2ccccc2)C(=O)O)cc1 (stereo in doubt) [Compound 1, (R)-3-Benzylsulfanyl-2-{[5-(4-cyanophenyl)-2-(4-trifluoromethylphenyl)oxazole-4-carbonyl]amino}propionic acid] — within 1.5-fold, 70.7 µM
